According to patent US20260138949A1, “NOVEL COMPOUND AS PHOSPHOLIPASE D INHIBITOR AND USE THEREOF” (UIF (UNIVERSITY INDUSTRY FOUNDATION), YONSEI UNIVERSITY, priority 2022, published 2026):

Each compound was assayed on normal colon epithelial cells (FHC) (assay: Apoptosis (annexin V-FITC) in normal cells). Details: 5-FU 10 μM, 48 hours.
Assay type: cell-based
Procedure: (§1) To observe changes in apoptosis, normal colon epithelial cells (FHC) and human colon cancer cell line (DLD1) were treated with compound 1-91 at 2 μM and the positive control 5-FU at 10 μM. After 48 hours, the cells were washed with PBS, harvested, and analyzed for apoptosis using an annexin V-FITC apoptosis detection kit.

SMILES	apoptosis, normal cells
O=c1[nH]cc(F)c(=O)[nH]1 [Example 5-FU, reference compound]	induced apoptosis in both normal and cancer cells

Each compound was assayed on normal colon epithelial cells (FHC) (assay: Cell cycle analysis (BrdU/7-AAD flow cytometry) in normal cells). Details: 5-FU 10 μM, 48 hours.
Assay type: cell-based
Procedure: (§2) To observe cell cycle changes, normal colon epithelial cells (FHC) and human colon cancer cell line DLD1 were treated with compound 1-91 at 2 μM and the positive control 5-FU at 10 μM. After 48 hours, the cells were washed with PBS, harvested, and sequentially treated with bromodeoxyuridine (BrdU) and 7-aminoactinomycin D (7-AAD). The cells were then stained with an anti-BrdU antibody conjugated with fluorescein isothiocyanate (FITC) and analyzed using a flow cytometer.

SMILES	cell cycle arrest, normal cells
O=c1[nH]cc(F)c(=O)[nH]1 [Example 5-FU, reference compound]	arrested the cell cycle at the G0/G1 phase in normal cells

Each compound was assayed on human colon cancer cell line (DLD1) (assay: Apoptosis (annexin V-FITC) in cancer cells). Details: DLD1, 5-FU 10 μM, 48 hours.
Assay type: cell-based
Procedure: as §1

SMILES	apoptosis, cancer cells
O=c1[nH]cc(F)c(=O)[nH]1 [Example 5-FU, reference compound]	induced apoptosis in both normal and cancer cells

The compounds below were run on phospholipase D1 (assay: PLD activity in HCT116 cells ([3H]phosphatidylbutanol, TLC)). Details: compound 10 μM, cells without the compound = 100%.
Assay type: cell-based, human
Procedure: To evaluate the inhibitory effect of the compounds according to the present invention on phospholipase D1 activity, experiments were conducted as follows.
For the analysis of PLD activity in cells, human colon cancer cell line (HCT116) was cultured in a 6-well plate at 37° C. for 24 hours, washed twice with phosphate-buffered saline (PBS), and then replaced with medium containing [^3H]myristate and cultured for 24 hours. After the culture, the cells were washed three times with PBS, treated with 1-butanol, and the drug was added to a final concentration of 10 μM. The cells were trypsinized and suspended, and the amount of [^3H]phosphatidylbutanol produced in the cell suspension was measured and evaluated for PLD activity using thin layer chromatography (TLC), and the results are shown in Table 1 below.
The Remaining activity % at 10 μM in Table 1 is calculated by setting the amount of [^3H]phosphatidylbutanol produced in cells without the compound as 100% and calculating the amount of [^3H]phosphatidylbutanol produced in cells treated with the compound as a percentage. Therefore, the lower the value of Remaining activity %, the higher the PLD inhibitory activity.

SMILES	Remaining activity % at 10 μM
O=C(NCc1ccc(O)c(O)c1)c1cc2cc(F)ccc2[nH]1 [Example 1-111, N-(3,4-dihydroxybenzyl)-5-fluoro-1H-indole-2-carboxamide]	54.41%
O=C(CCCc1c[nH]c2ccccc12)Nc1cc(C(F)(F)F)cc(C(F)(F)F)c1 [Example 1-77, N-(3,5-bis(trifluoromethyl)phenyl)-4-(1H-indol-3-yl)butanamide]	50.79%
O=C(Cc1c[nH]c2ccccc12)NNc1cccc(Cl)c1 [Example 1-52, N′-(3-chlorophenyl)-2-(1H-indol-3-yl)acetohydrazide]	95.18%
O=C(Cc1c[nH]c2ccccc12)Nc1cccc(F)c1 [Example 1-13, N-(3-fluorophenyl)-2-(1H-indol-3-yl)acetamide]	30.28%
O=C(Cc1c[nH]c2ccccc12)Nc1ccc(C(F)(F)F)cc1 [Example 1-26, 2-(1H-indol-3-yl)-N-(4-(trifluoromethyl)phenyl)acetamide]	82.43%
O=C(Cc1c[nH]c2ccccc12)NCc1ccc(O)c(O)c1 [Example 1-107, N-(3,4-dihydroxybenzyl)-2-(1H-indol-3-yl)acetamide]	88.12%
O=C(Cc1c[nH]c2ccccc12)NNc1ccc(Cl)c(Cl)c1 [Example 1-54, N′-(3,4-dichlorophenyl)-2-(1H-indol-3-yl)acetohydrazide]	not active
O=C(Cc1c[nH]c2ccccc12)NCc1ccc(C(F)(F)F)cc1 [Example 1-43, 2-(1H-indol-3-yl)-N-(4-(trifluoromethyl)benzyl)acetamide]	48.92%
O=C(Cc1c[nH]c2ccccc12)Nc1cccc([N+](=O)[O-])c1 [Example 1-30, 2-(1H-indol-3-yl)-N-(3-nitrophenyl)acetamide]	not active
O=C(Cc1c[nH]c2ccccc12)NCc1ccc(Cl)cc1 [Example 1-49, N-(4-chlorobenzyl)-2-(1H-indol-3-yl)acetamide]	59.74%
O=C(CCc1c[nH]c2ccccc12)Nc1ccc(O)c(O)c1 [Example 1-108, N-(3,4-dihydroxyphenyl)-3-(1H-indol-3-yl)propanamide]	76.29%
O=C(Cc1c[nH]c2ccccc12)Nc1ccc(Cl)c(Cl)c1 [Example 1-20, N-(3,4-dichlorophenyl)-2-(1H-indol-3-yl)acetamide]	not active
O=C(Nc1ccc(F)cc1)c1cc2cc(F)ccc2[nH]1 [Example 1-90, 5-fluoro-N-(4-fluorophenyl)-1H-indole-2-carboxamide]	48.64%
COC(=O)c1ccc2[nH]c(C(=O)Nc3cc(C(F)(F)F)cc(C(F)(F)F)c3)cc2c1 [Example 1-100, methyl 2-((3,5-bis(trifluoromethyl)phenyl)carbamoyl)-1H-indole-5-carboxylate]	46.12%
C#Cc1ccc(NC(=O)Cc2c[nH]c3ccccc23)cc1 [Example 1-31, N-(4-ethynylphenyl)-2-(1H-indol-3-yl)acetamide]	not active
O=C(Nc1cccc(F)c1)c1cc2cc(F)ccc2[nH]1 [Example 1-98, 5-fluoro-N-(3-fluorophenyl)-1H-indole-2-carboxamide]	76.66%
O=C(CCc1c[nH]c2ccccc12)Nc1ccc(F)cc1 [Example 1-63, N-(4-fluorophenyl)-3-(1H-indol-3-yl)propanamide]	not active

SMILES	Remaining activity % at 10 μM
O=C(Nc1ccc(Cl)c(Cl)c1)c1cc2ccccc2[nH]1 [Example 1-86, N-(3,4-dichlorophenyl)-1H-indole-2-carboxamide]	not active
O=C(Cc1c[nH]c2ccccc12)NCc1ccccn1 [Example 1-56, 2-(1H-indol-3-yl)-N-(pyridin-2-ylmethyl)acetamide]	96.79%
O=C(Nc1ccc(Cl)c(Cl)c1)c1c[nH]c2ccccc12 [Example 1-4, N-(3,4-dichlorophenyl)-1H-indole-3-carboxamide]	56.19%
O=C(Nc1ccc(O)c(O)c1)c1cc2ccccc2[nH]1 [Example 1-109, N-(3,4-dihydroxyphenyl)-1H-indole-2-carboxamide]	not active
O=C(CCCc1c[nH]c2ccccc12)Nc1ccc(Cl)c(Cl)c1 [Example 1-79, N-(3,4-dichlorophenyl)-4-(1H-indol-3-yl)butanamide]	61.61%
O=C(CCc1c[nH]c2ccccc12)Nc1cccc(Br)c1 [Example 1-64, N-(3-bromophenyl)-3-(1H-indol-3-yl)propanamide]	not active
O=C(CCCc1c[nH]c2ccccc12)Nc1ccc(Br)cc1 [Example 1-76, N-(4-bromophenyl)-4-(1H-indol-3-yl)butanamide]	79.65%
O=C(Nc1ccc(O)c(O)c1)c1c[nH]c2ccccc12 [Example 1-105, N-(3,4-dihydroxyphenyl)-1H-indole-3-carboxamide]	39.17%
O=C(CCCC[C@@H]1SC[C@@H]2NC(=O)N[C@@H]21)NNC(=O)c1ccc2[nH]c(C(=O)Nc3cc(C(F)(F)F)cc(C(F)(F)F)c3)cc2c1 [Example 1-119, N-(3,5-bis(trifluoromethyl)phenyl)-5-(2-(5-((3aS,4S,6aR)-2-oxohexahydro-1H-thieno[3,4-d]imidazol-4-yl)pentanoyl)hydrazine-1-carbonyl)-1H-indole-2-carboxamide]	27.26%
COc1ccc(COC(=O)CCCc2c[nH]c3ccccc23)cc1 [Example 1-117, 4-methoxybenzyl 4-(1H-indol-3-yl)butanoate]	72.65%
O=C(Cc1c[nH]c2ccccc12)Nc1ccc(Br)cc1 [Example 1-17, N-(4-bromophenyl)-2-(1H-indol-3-yl)acetamide]	not active
O=C(CCCc1c[nH]c2ccccc12)NCc1ccc(Cl)c(Cl)c1 [Example 1-82, N-(3,4-dichlorobenzyl)-4-(1H-indol-3-yl)butanamide]	94.09%
O=C(CCc1c[nH]c2ccccc12)Nc1cc(C(F)(F)F)cc(C(F)(F)F)c1 [Example 1-67, N-(3,5-bis(trifluoromethyl)phenyl)-3-(1H-indol-3-yl)propanamide]	29.17%
O=C(Nc1ccc(O)c(O)c1)c1cc2cc(F)ccc2[nH]1 [Example 1-110, N-(3,4-dihydroxyphenyl)-5-fluoro-1H-indole-2-carboxamide]	28.85%
COc1ccccc1CNC(=O)Cc1c[nH]c2ccccc12 [Example 1-50, 2-(1H-indol-3-yl)-N-(2-methoxybenzyl)acetamide]	79.27%
COc1ccc(COC(=O)c2cc3ccccc3[nH]2)cc1 [Example 1-116, 4-methoxybenzyl 1H-indole-2-carboxylate]	52.66%
O=C(Cc1c[nH]c2ccccc12)NCc1ccc(F)cc1 [Example 1-37, N-(4-fluorobenzyl)-2-(1H-indol-3-yl)acetamide]	not active

What follows are compounds tested on human colon cancer cell line DLD1 (assay: Cell cycle analysis (BrdU/7-AAD flow cytometry) in cancer cells). Details: DLD1, 5-FU 10 μM, 48 hours.
Assay type: cell-based
Procedure: as §2

SMILES	cell cycle arrest, cancer cells
O=c1[nH]cc(F)c(=O)[nH]1 [Example 5-FU, reference compound]	at the Sub G1 phase in cancer cells
